Test system: Serotoninödem an der Ratte
Experiment: Antiserotonin effect on serotonin-induced oedema in the rat (set-up according to Winter, Risley and Nuss)
Assay type: in vivo
Settings: dose 0,005 mg/kg i. p., mean inhibition versus control group, values statistically significant for A and B; for prozentuale Hemmung nach Serotoningabe (%) nach 30 min: 30 min after serotonin; for prozentuale Hemmung nach Serotoningabe (%) nach 90 min: 90 min after serotonin; for prozentuale Hemmung nach Serotoningabe (%) nach 150 min: 150 min after serotonin; for prozentuale Hemmung nach Serotoningabe (%) nach 210 min: 210 min after serotonin; for prozentuale Hemmung nach Serotoningabe (%) nach 270 min: 270 min after serotonin

| Compound | prozentuale Hemmung nach Serotoningabe (%) nach 30 min | prozentuale Hemmung nach Serotoningabe (%) nach 90 min | prozentuale Hemmung nach Serotoningabe (%) nach 150 min | prozentuale Hemmung nach Serotoningabe (%) nach 210 min | prozentuale Hemmung nach Serotoningabe (%) nach 270 min |
| --- | --- | --- | --- | --- | --- |
| CC[C@@H](CO)NC(=O)[C@@H]1C=C2c3cccc4c3c(cn4C)C[C@H]2N(C)C1 [Methysergid, reference compound] | 68% | 60% | 36% | 34% | 46% |
| C[C@@H](CO)NC(=O)[C@@H]1C=C2c3cccc4c3c(cn4Cc3cccc(F)c3)C[C@H]2N(C)C1 [Verb. A, 1-(3'-Fluorbenzyl)-ergometrindimaleinat] | 44% | 50% | 36% | 55% | 56% |
| C[C@@H](CO)NC(=O)[C@@H]1C=C2c3cccc4c3c(cn4Cc3ccc(Cl)cc3)C[C@H]2N(C)C1 [Verb. B, 1-(4'-Chlorbenzyl)-ergometrindimaleinat] | 44% | 45% | 46% | 61% | 58% |
